IC50 data for 23 compounds are collected here from US20260008758A1, “LINEAR DIPEPTIDYL PEPTIDASE 1 INHIBITORS AND USES THEREOF” (Insmed Incorporated, priority 2024, published 2026).

Where two headings read alike, the source gives them in different places.

One assay deals with human DPP1 enzyme (Homo sapiens (Human), UniProt P53634). Put plainly: Human DPP1 enzyme IC50 assay. It is filed as biochemical. Put shortly:
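Fluorogenic readout (350/450 nm, every 5 min over 90 min, 37°C) of H-Gly-Arg-AMC cleavage at 400 μM final substrate. Compounds met activated DPP1 first for a 10-min 37°C pre-incubation in MES buffer pH 6.0 with DTT, 1% DMSO final. Four-parameter sigmoidal fit gave IC50.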

In the next assay the target is DPP1 in HL-60 cells (Homo sapiens (Human), UniProt P53634). Put plainly: DPP1 Cell IC50 assay. It is filed as cell-based. Particulars: H-Gly-Phe-AFC substrate, 60 min pre-incubation. On the procedure:
Media was changed every three to four days and cells were not allowed to exceed 1×10^6 cells per mL. Prior to assay, cells were collected by centrifugation at 500 rcf for 3 minutes, resuspended in PBS and counted. Cells were diluted in PBS to a concentration of 5×10^5 live cells per mL and transferred to black 96-well plates for assay, 60 μL per well. Test articles were diluted in PBS plus 0.5% DMSO, and 20 μL was added to each assay well. Compound was allowed to pre-incubate with cells with gentle shaking at 100 rpm for 60 minutes at 37° C. in a cell culture incubator maintained at 5% CO2, after which 20 μL of 500 μM H-Gly-Phe-AFC substrate (MP Biomedicals; Solon, OH) was added to each well. Plates were returned to the incubator with shaking at 100 rpm for 30 minutes, after which fluorescence was measured at Excitation/Emission 400/505 nm. % Inhibition was calculated from RFU values compared to control cell wells that received only PBS plus 0.5% DMSO. IC50 values for each compound were calculated via the XLFit (IDBS Version 5.3.1.3) Add-On to Microsoft Excel using the four parameter fit equation y=(A+((B-A)/(1+((C/x)^D)))), which appears as equation number 205 (4 Parameter Logistic Model or Sigmoidal Dose-Response Model) in XLFit.

Setting [1] is: recombinant human DPP1, H-Gly-Arg-AMC substrate 400 μM.

Chain of DPP1 in HL-60 cells (P53634 25-134): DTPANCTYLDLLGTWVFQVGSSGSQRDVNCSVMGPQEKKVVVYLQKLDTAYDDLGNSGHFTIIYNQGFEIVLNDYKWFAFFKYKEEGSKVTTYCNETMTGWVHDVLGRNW
Chain of DPP1 in HL-60 cells (P53634 231-394): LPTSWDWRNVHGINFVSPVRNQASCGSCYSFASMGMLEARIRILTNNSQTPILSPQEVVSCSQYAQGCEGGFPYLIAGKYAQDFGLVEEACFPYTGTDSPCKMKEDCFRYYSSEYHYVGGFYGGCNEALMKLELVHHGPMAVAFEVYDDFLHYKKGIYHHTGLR
Chain of DPP1 in HL-60 cells (P53634 395-463): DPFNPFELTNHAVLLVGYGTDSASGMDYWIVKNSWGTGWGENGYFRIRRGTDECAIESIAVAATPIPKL
Chain of human DPP1 enzyme (P53634 25-134): as the sequence (P53634 25-134) above
Chain of human DPP1 enzyme (P53634 231-394): as the sequence (P53634 231-394) above
Chain of human DPP1 enzyme (P53634 395-463): as the sequence (P53634 395-463) above

Turning to `Cn1c(=O)oc2ccc(-c3ccc(C[C@@H](C#N)NC(=O)[C@@H](N)[C@H]4CCc5ccccc54)cc3)cc21` [Compound 207, (S)-2-amino-N—((S)-1-cyano-2-(4-(3-methyl-2-oxo-2,3-dihydrobenzo[d]oxazol-5-yl)phenyl)ethyl)-2-((S)-2,3-dihydro-1H-inden-1-yl)acetamide], the IC50 (usually the point on the concentration scale where inhibition reaches its midpoint) at human DPP1 enzyme (setting [1]) is ≥ 15 nM; at DPP1 in HL-60 cells, ≥ 2.5 nM.

Consider `Cn1c(=O)oc2ccc(-c3ccc(C[C@@H](C#N)NC(=O)C(N)Cc4cc[nH]c4)cc3)cc21` (stereo partly drawn) [Compound 208, 2-amino-N-[(1S)-1-cyano-2-[4-(3-methyl-2-oxo-1,3-benzoxazol-5-yl)phenyl]ethyl]-3-(1H-pyrrol-3-yl)propanamide], for which the figures for the IC50 against human DPP1 enzyme and at DPP1 in HL-60 cells were < 5 nM and ≥ 2.5 nM, respectively.

With `Cn1c(=O)oc2ccc(-c3ccc(C[C@@H](C#N)NC(=O)[C@H](N)[C@H]4CCCO4)cc3)cc21` [Compound 211, (2R)-2-amino-N-[(1S)-1-cyano-2-[4-(3-methyl-2-oxo-1,3-benzoxazol-5-yl)phenyl]ethyl]-2-[(2R)-oxolan-2-yl]acetamide], the IC50 at human DPP1 enzyme (setting [1]) is ≥ 15 nM; against DPP1 in HL-60 cells, ≥ 2.5 nM.

`Cn1c(=O)oc2ccc(-c3ccc(C[C@@H](C#N)NC(=O)[C@H](N)[C@@H]4CCCO4)cc3)cc21` [Compound 213, (2R)-2-amino-N-[(1S)-1-cyano-2-[4-(3-methyl-2-oxo-1,3-benzoxazol-5-yl)phenyl]ethyl]-2-[(2S)-oxolan-2-yl]acetamide]: the results for the IC50 at human DPP1 enzyme (setting [1]) and on DPP1 in HL-60 cells were ≥ 15 nM and ≥ 2.5 nM, respectively.

Consider `Cn1c(=O)oc2ccc(-c3ccc(C[C@@H](C#N)NC(=O)[C@@H](N)Cc4cn[nH]c4)cc3)cc21` [Compound 214, (2S)-2-amino-N-[(1S)-1-cyano-2-[4-(3-methyl-2-oxo-1,3-benzoxazol-5-yl)phenyl]ethyl]-3-(1H-pyrazol-4-yl)propanamide], for which the IC50 is ≥ 15 nM on human DPP1 enzyme (setting [1]) and ≥ 2.5 nM against DPP1 in HL-60 cells.

With `Cn1c(=O)oc2ccc(-c3ccc(C[C@@H](C#N)NC(=O)[C@H](N)Cc4c[nH]cn4)cc3)cc21` [Compound 215, (2R)-2-amino-N-[(1S)-1-cyano-2-[4-(3-methyl-2-oxo-1,3-benzoxazol-5-yl)phenyl]ethyl]-3-(1H-imidazol-4-yl)propanamide], the IC50 at human DPP1 enzyme (setting [1]) was ≥ 15 nM; on DPP1 in HL-60 cells, ≥ 2.5 nM.

Regarding `Cn1c(=O)oc2ccc(-c3ccc(C[C@@H](C#N)NC(=O)C(N)Cc4ncsc4Cl)cc3)cc21` (stereo partly drawn) [Compound 218, 2-amino-3-(5-chloro-1,3-thiazol-4-yl)-N-[(1S)-1-cyano-2-[4-(3-methyl-2-oxo-1,3-benzoxazol-5-yl)phenyl]ethyl]propanamide], the values for the IC50 at human DPP1 enzyme (setting [1]) and on DPP1 in HL-60 cells were 5 to 15 nM and ≥ 2.5 nM, respectively.

As for `Cn1c(=O)oc2ccc(-c3ccc(C[C@@H](C#N)NC(=O)C(C)(N)C4CCCC4)cc3)cc21` (stereo partly drawn) [Compound 219, 2-amino-N-[(1S)-1-cyano-2-[4-(3-methyl-2-oxo-1,3-benzoxazol-5-yl)phenyl]ethyl]-2-cyclopentylpropanamide], the values for the IC50 on human DPP1 enzyme (setting [1]) and against DPP1 in HL-60 cells were ≤ 5 nM and 1 to 2.5 nM, respectively.

In the case of `Cn1c(=O)oc2ccc(-c3ccc(C[C@@H](C#N)NC(=O)C(C)(N)C4CCC4)cc3)cc21` (stereo partly drawn) [Compound 220, 2-amino-N-[(1S)-1-cyano-2-[4-(3-methyl-2-oxo-1,3-benzoxazol-5-yl)phenyl]ethyl]-2-cyclobutylpropanamide], the half-inhibitory concentration (IC50) was ≤ 5 nM at human DPP1 enzyme (setting [1]) and 1 to 2.5 nM against DPP1 in HL-60 cells.

For the compound `Cn1c(=O)oc2ccc(-c3ccc(C[C@@H](C#N)NC(=O)C(N)Cc4cc[nH]n4)cc3)cc21` (stereo partly drawn) [Compound 221, 2-amino-N-[(1S)-1-cyano-2-[4-(3-methyl-2-oxo-1,3-benzoxazol-5-yl)phenyl]ethyl]-3-(1H-pyrazol-3-yl)propanamide], the values for the IC50 on human DPP1 enzyme (setting [1]) and on DPP1 in HL-60 cells were ≤ 5 nM and ≥ 2.5 nM, respectively.

Regarding `Cn1c(=O)oc2ccc(-c3ccc(C[C@@H](C#N)NC(=O)C4(N)CCCC45CC5)cc3)cc21` (stereo partly drawn) [Compound 222, 4-amino-N-[(1S)-1-cyano-2-[4-(3-methyl-2-oxo-1,3-benzoxazol-5-yl)phenyl]ethyl]spiro[2.4]heptane-4-carboxamide], the IC50 on human DPP1 enzyme (setting [1]) is ≤ 5 nM; on DPP1 in HL-60 cells, 1 to 2.5 nM.

As to `Cn1c(=O)oc2ccc(-c3ccc(C[C@@H](C#N)NC(=O)C(N)Cc4ccon4)cc3)cc21` (stereo partly drawn) [Compound 231, 2-amino-N-[(1S)-1-cyano-2-[4-(3-methyl-2-oxo-1,3-benzoxazol-5-yl)phenyl]ethyl]-3-(1,2-oxazol-3-yl)propanamide], the figures for the IC50 on human DPP1 enzyme (setting [1]) and against DPP1 in HL-60 cells were ≤ 5 nM and ≥ 2.5 nM, respectively.

In the case of `C[C@@H](NCc1cccs1)C(=O)N[C@H](C#N)Cc1ccc(-c2ccc3oc(=O)n(C)c3c2)cc1` [Compound 232, (2R)—N-[(1S)-1-cyano-2-[4-(3-methyl-2-oxo-1,3-benzoxazol-5-yl)phenyl]ethyl]-2-[(thiophen-2-ylmethyl)amino]propanamide], the IC50 is ≥ 15 nM on human DPP1 enzyme (setting [1]) and ≥ 2.5 nM against DPP1 in HL-60 cells.

As for `N#Cc1ccc(-c2ccc(C[C@H](C#N)NC(=O)C3(N)CCOCC3)c(I)c2)cc1` [Compound 249, 4-amino-N-[(1R)-1-cyano-2-{4′-cyano-3-iodo-[1,1′-biphenyl]-4-yl}ethyl]oxane-4-carboxamide], the IC50 at human DPP1 enzyme (setting [1]) is ≥ 15 nM; against DPP1 in HL-60 cells, ≥ 2.5 nM.

Turning to `Cn1ccc(CC(N)C(=O)N[C@H](C#N)Cc2ccc(-c3ccc4oc(=O)n(C)c4c3)cc2)c1` (stereo partly drawn) [Compound 254, 2-amino-N-[(1S)-1-cyano-2-[4-(3-methyl-2-oxo-1,3-benzoxazol-5-yl)phenyl]ethyl]-3-(1-methylpyrrol-3-yl)propanamide], the values for the IC50 on human DPP1 enzyme (setting [1]) and at DPP1 in HL-60 cells were 5 to 15 nM and ≥ 2.5 nM, respectively.

In the case of `COCCN(C)CCn1c(=O)oc2ccc(-c3ccc(C[C@@H](C#N)NC(=O)[C@@](C)(N)C4CCCC4)cc3)cc21` [Compound 258A, (2S)-2-amino-N-[(1S)-1-cyano-2-[4-(3-{2-[(2-methoxyethyl)(methyl)amino]ethyl}-2-oxo-1,3-benzoxazol-5-yl)phenyl]ethyl]-2-cyclopentylpropanamide], the IC50 at human DPP1 enzyme (setting [1]) was ≥ 15 nM; on DPP1 in HL-60 cells it was ≥ 2.5 nM.

Consider `COCCN(C)CCn1c(=O)oc2ccc(-c3ccc(C[C@@H](C#N)NC(=O)[C@](C)(N)C4CCCC4)cc3)cc21` [Compound 258B, (2R)-2-amino-N-[(1S)-1-cyano-2-[4-(3-{2-[(2-methoxyethyl)(methyl)amino]ethyl}-2-oxo-1,3-benzoxazol-5-yl)phenyl]ethyl]-2-cyclopentylpropanamide], for which the values for the IC50 on human DPP1 enzyme (setting [1]) and against DPP1 in HL-60 cells were ≤ 5 nM and 1 to 2.5 nM, respectively.

On to `CCN1C(=O)Cc2ccc(-c3ccc(C[C@@H](C#N)NC(=O)[C@@](C)(N)C4CCCC4)cc3)cc21` [Compound 259A, (2S)-2-amino-N-[(1S)-1-cyano-2-[4-(1-ethyl-2-oxo-3H-indol-6-yl)phenyl]ethyl]-2-cyclopentylpropanamide], for which the results for the IC50 on human DPP1 enzyme (setting [1]) and against DPP1 in HL-60 cells were ≤ 5 nM and 1 to 2.5 nM, respectively.

Take `CCN1C(=O)Cc2ccc(-c3ccc(C[C@@H](C#N)NC(=O)[C@@](C)(N)C4CCCC4)c(F)c3)cc21` [Compound 264A, (2S)-2-amino-N-[(1S)-1-cyano-2-[4-(1-ethyl-2-oxo-3H-indol-6-yl)-2-fluorophenyl]ethyl]-2-cyclopentylpropanamide]: the results for the IC50 at human DPP1 enzyme (setting [1]) and against DPP1 in HL-60 cells were ≥ 15 nM and ≥ 2.5 nM, respectively.

Turning to `CCN1C(=O)Cc2ccc(-c3ccc(C[C@@H](C#N)NC(=O)[C@](C)(N)C4CCCC4)c(F)c3)cc21` [Compound 264B, (2R)-2-amino-N-[(1S)-1-cyano-2-[4-(1-ethyl-2-oxo-3H-indol-6-yl)-2-fluorophenyl]ethyl]-2-cyclopentylpropanamide], the IC50 on human DPP1 enzyme (setting [1]) is ≤ 5 nM; on DPP1 in HL-60 cells it was 1 to 2.5 nM.

Consider `CCCCOCCn1c(=O)oc2ccc(-c3ccc(C[C@@H](C#N)NC(=O)C(C)(N)C4CCC4)c(F)c3)cc21` (stereo partly drawn) [Compound 267, 2-amino-N-[(1S)-2-{4-[3-(2-butoxyethyl)-2-oxo-1,3-benzoxazol-5-yl]-2-fluorophenyl}-1-cyanoethyl]-2-cyclobutylpropanamide], for which the IC50 was ≤ 5 nM on human DPP1 enzyme (setting [1]) and ≥ 2.5 nM against DPP1 in HL-60 cells.

On to `CN(C)CCn1c(=O)oc2ccc(-c3ccc(C[C@@H](C#N)NC(=O)C(C)(N)C4CCC4)c(F)c3)cc21` (stereo partly drawn) [Compound 268, 2-amino-N-[(1S)-1-cyano-2-(4-{3-[2-(dimethylamino)ethyl]-2-oxo-1,3-benzoxazol-5-yl}-2-fluorophenyl)ethyl]-2-cyclobutylpropanamide], for which the figures for the IC50 on human DPP1 enzyme (setting [1]) and against DPP1 in HL-60 cells were ≤ 5 nM and 1 to 2.5 nM, respectively.

Turning to `CN1CCC2(CCc3ccc(-c4ccc(C[C@@H](C#N)NC(=O)C(C)(N)C5CCC5)c(F)c4)cc32)CC1` (stereo partly drawn) [Compound 269, 2-amino-N—((S)-1-cyano-2-(2-fluoro-4-(1′-methyl-2,3-dihydrospiro[indene-1,4′-piperidin]-6-yl)phenyl)ethyl)-2-cyclobutylpropanamide], the IC50 was ≤ 5 nM at human DPP1 enzyme (setting [1]) and ≥ 2.5 nM against DPP1 in HL-60 cells.
